Source: patent US6429208B1, “Methods and compositions for restoring impaired cellular immune function” (Regents of the University of California, priority 1992, dated 2002)

Experiments:
Format in all cases: cell-based, human
[1] = system: PBMC from HIV seronegative controls; test: Proliferative response to Candida albicans, HIV seronegative controls; conditions: seven HIV seronegative controls; without ddAdo 6600 (±2000)
Procedure: Proliferative assays were done in triplicates of 50,000 PBMC in 200 μL RPMI with 10% FCS and 8 μg/ml of Candida albicans. ddAdo was added in two-fold dilutions; tritiated thymidine was added at day 5 and cells were harvested at day 6. Concentrations of ddAdo from 12.5 to 50 ng/ml gave the highest responses. […] Ratio 1:12 gave 48% (±12) without and 76% (±9) with ddAdo during priming. Ratio 1:25 gave 61% (±15) without and 77% (±9) with ddAdo.

[2] = system: PBMC from HIV seropositive donors; test: Immunoglobulin / anti-HIV antibody production by PBMC from HIV seropositive donors; conditions: 10 days
Procedure: Immunoglobulin production by B-cells is regulated by T-cells; CD4 provides “help” for de novo synthesis and CD8 suppresses immunoglobulin production. In HIV infection, increased total immunoglobulin production with a decrease in certain specific HIV antibodies to HIV GAG proteins during infection is a common finding (Lange, et al. AIDS (1987) 1:155-9). In this experiment, 10^6 PBMC from HIV seropositive donors were incubated in 1 ml cultures with and without ddAdo (1-100 ng/ml) for 10 days. IgG and anti-HIV antibodies in supernatant were measured by ELISA. p24 binding capacity was measured with a kit from DuPont following the manufacturer's protocol. Addition of ddAdo to cultures of PBMC from HIV seropositive subjects restored production of specific antibodies to p24 (Table 3). An effect of ddAdo on T-cells has been shown above but a possible direct effect on B-cells cannot be ruled out.
Addition of ddAdo to cultures of PBMC from HIV seropositive subjects increased spontaneous anti-p24 antibodies in individuals with none/low spontaneous production (p24 is an HIV core protein). One million PBMC from HIV seropositive donors were incubated in 1 ml cultures with and without ddAdo (1-100 ng/ml) for 10 days. IgG10 and production of anti-HIV antibodies to p24 in supernatants were measured by ELISA. p24 binding capacity was measured with a kit from DuPont (Delaware) following the manufacturer's protocol.

PBMC = test: Proliferative response to PHA after preincubation with HIV components; conditions: HIV components 1 hour, wash, ddAdo 10 minutes, 5 of 5 experiments, FIG. 7
Procedure: Proliferative assays were performed as previously described (see, for example, Hofmann, B., et al., Cell Immunol (1989) 121:336-48. Briefly, one microcurie ^3H-thymidine was added to cultures 72 hours after stimulation, and after further 24 hours, all cultures were harvested on glass fiber filters with an automatic harvesting machine (Skatron, Lierbyen, Norway), and the incorporated radioactivity was measured in a liquid scintillation counter (Beckman LS 1800) after an addition of 1.5 ml scintillation fluid.
HIV components were added to PBMC for 1 hour followed by washing and then treating the cells with dideoxyadenosine (ddAdo) for 10 minutes, again followed by washing. Under these circumstances, the proliferative response to PHA could be restored (FIG. 7).

C[C@H]1O[C@@H](n2cnc3c(N)ncnc32)C[C@@H]1O [ddAdo, 2′,5′ dideoxyadenosine]
Responses to Candida albicans [1]: 7600 (±1.9) cpm
p24 Binding Capacity ([2]; Patient 1, none 0): 14 pg/mL
IgG ([2]; Patient 1, none 326): 367 µg/mL
Anti-HIV Ab ([2]; Patient 1, none .5910): .5300 OD
p24 Binding Capacity ([2]; Patient 2, none 0): 16 pg/mL
IgG ([2]; Patient 2, none 98): 89 µg/mL
Anti-HIV Ab ([2]; Patient 2, none .1320): .1940 OD
p24 Binding Capacity ([2]; Patient 3, none 0): 88 pg/mL
Anti-HIV Ab ([2]; Patient 3, none 1.1390): 1.0820 OD
IgG ([2]; Patient 3, none 366): 309 µg/mL
p24 Binding Capacity ([2]; Patient 4, none 25): 49 pg/mL
IgG ([2]; Patient 4, none 123): 142 µg/mL
Anti-HIV Ab ([2]; Patient 4, none .2000): .1640 OD
p24 Binding Capacity ([2]; Patient 5, none 41): 32 pg/mL
IgG ([2]; Patient 5, none 55): 192 µg/mL
Anti-HIV Ab ([2]; Patient 5, none .1480): .1360 OD
p24 Binding Capacity ([2]; Patient 6, none 60): 50 pg/mL
IgG ([2]; Patient 6, none 76): 80 µg/mL
Anti-HIV Ab ([2]; Patient 6, none .0330): .0330 OD
IgG ([2]; Patient 7, none 244): 145 µg/mL
p24 Binding Capacity ([2]; Patient 7, none 376): 418 pg/mL
Anti-HIV Ab ([2]; Patient 7, none .0570): .2990 OD
IgG ([2]; Patient 8, none 143): 170 µg/mL
p24 Binding Capacity ([2]; Patient 8, none 1540): 1560 pg/mL
Anti-HIV Ab ([2]; Patient 8, none .4860): .3900 OD
Proliferative response to PHA (PBMC): restored
